Assay results taken from ChEMBL document CHEMBL4184196, “Design, synthesis, and evaluation of polyamine-memantine hybrids as NMDA channel blockers” (Bioorg Med Chem, 2018).
Structures can show the parent of a compound that is named as a salt. The source made the active and inactive calls. The calls are words filed in the database; no cut-off is given here.

How the values were obtained:
Format in all cases: cell-based
[1] = molecular target: Glutamate NMDA receptor; Grin1/Grin2b (Rattus norvegicus) (UniProt P35439+Q00960); test: Antagonist activity at rat brain GluN1/GluN2B receptor expressed in Xenopus laevis oocytes assessed as inhibition of glutamate/glycine-induced channel current at 1 uM by two electrode voltage clamp method
[2] = molecular target: Glutamate NMDA receptor; Grin1/Grin2a (Rattus norvegicus) (UniProt P35439+Q00959); test: Antagonist activity at rat brain GluN1/GluN2A receptor expressed in Xenopus laevis oocytes assessed as inhibition of glutamate/glycine-induced channel current at 1 uM by two electrode voltage clamp method
[3] = molecular target: Glutamate NMDA receptor; Grin1/Grin2b (Rattus norvegicus, UniProt P35439+Q00960); test: Antagonist activity at rat brain GluN1/GluN2B receptor expressed in Xenopus laevis oocytes assessed as inhibition of glutamate/glycine-induced channel current by two electrode voltage clamp method
[4] = molecular target: Glutamate NMDA receptor; Grin1/Grin2a (Rattus norvegicus, UniProt P35439+Q00959); test: Antagonist activity at rat brain GluN1/GluN2A receptor expressed in Xenopus laevis oocytes assessed as inhibition of glutamate/glycine-induced channel current by two electrode voltage clamp method

SMILES: CC12CC3CC(C)(C1)CC(NCCCCN=C(N)N)(C3)C2
- inhibition [1]: Active
- inhibition [2]: Active

SMILES: CC12CC3CC(C)(C1)CC(NCCCCNCc1ccccc1)(C3)C2
- inhibition [1]: Active
- inhibition [2]: Active

SMILES: CC12CC3CC(C)(C1)CC(NCCCCCCCCCN)(C3)C2
- inhibition [1]: Active
- inhibition [2]: Active

SMILES: CC12CC3CC(C)(C1)CC(NCCCCNCCCCN)(C3)C2
- IC50 [3]: 587 nM
- IC50 [4]: 656 nM

SMILES: CC12CC3CC(C)(C1)CC(N)(C3)C2 [MEMANTINE HYDROCHLORIDE]
- IC50 [4]: 1380 nM

SMILES: CC12CC3CC(C)(C1)CC(NCCCCN)(C3)C2
- inhibition [1]: Active
- inhibition [2]: Active

SMILES: CC12CC3CC(C)(C1)CC(NCCCCNCCCCNC(=N)N)(C3)C2
- IC50 [3]: 433 nM
- IC50 [4]: 379 nM
